What all share (test): growth of human tumour cells (NCI), 48 h
Experiment [1] has as its system A549 NSCLC.
Experiment [2] deals with PC-3 prostate.
Experiment [3] relates to OVCAR-8 ovarian.
The subject of experiment [4] is SK-OV-3 ovarian.
The subject of experiment [5] is MALME-3M melanoma.
Experiment [6] concerns TK-10 renal.
In experiment [7] the test system is HOP-92 NSCLC.
In experiment [8] the test system is CAKI-1 renal.
In experiment [9] the test system is A498 renal.
For experiment [10], the system named is 786-0 renal.

Values joined by “and” are separate entries in the source; they are usually repeats but may differ in a detail not shown here. Equal values may be shown once.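 1) Cells in 96-well plates. 2) Compound, 48 h, 5 concentrations. 3) Linear interpolation between surrounding doses. 4) Unreached endpoint = highest concentration. GI50 = concentration required for 50% inhibition of growth. At the TGI there is no net growth.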

As for `COc1cccc(-c2cc(-c3cccc(NS(C)(=O)=O)c3)nc(N)c2C#N)c1O`, the GI50 in experiment [1] is 0.293 µM; in experiment [2], 0.111 µM; in experiment [3], 0.351 µM; in experiment [4], 0.149 µM; in experiment [5], 0.0465 µM; in [6] it was 0.5 µM. The GI50 in [7] was 3.19 µM; in experiment [8] it was 0.141 µM; in experiment [9] it was 0.0999 µM; in experiment [10] it was 0.375 µM. Besides, the TGI is more than 100 µM in [1]; more than 100 µM in [2]; more than 100 µM in [3]; more than 100 µM in experiment [4]; 93.4 µM in experiment [5]; more than 100 µM in experiment [6]. Further, the TGI was more than 31.5 µM in [7], 88.9 µM in experiment [8], 35 µM in [9] and more than 100 µM in experiment [10].
In the case of `CCN(CC)N=Nc1c(C(N)=O)n[nH]c1C`, the TGI in experiment [1] is more than 100 µM; in experiment [2], more than 100 µM; in experiment [3] it was more than 100 µM; in experiment [4], 97.9 µM; in [5] it was more than 100 µM; in experiment [6], more than 100 µM. Besides, the TGI was 87.8 µM in experiment [7], more than 100 µM in [8], more than 100 µM in experiment [9] and more than 100 µM in experiment [10].
For the compound `O=C(Nc1ccccc1)c1c(O)[nH]c(=S)[nH]c1=O`, the GI50 in [1] was 36.7 µM; in experiment [3], 41.3 µM; in [5], 58.5 µM; in experiment [8], 28 µM; in [9] it was 65.2 µM. The TGI is 82.6 µM and 147 µM in experiment [1]; 85.2 µM in [2]; 76.7 µM and > 250 µM in [3]; 122 µM in experiment [4]; 96.6 µM and > 250 µM in experiment [5]; 125 µM in experiment [6]. The TGI in experiment [7] was 45.1 µM; in experiment [8], 58.1 µM and 127 µM; in experiment [9], 106 µM and > 250 µM; in experiment [10], 92.1 µM.
With `COc1ccc(CC2c3cc4c(cc3CCN2C)OCO4)c(C=O)c1OC` (centres undefined), the TGI in experiment [1], in experiment [2], in experiment [3], in [4], in [5] and in experiment [6] was more than 100 µM in each case. Besides, the TGI in experiment [7], in [8], in experiment [9] and in experiment [10] was more than 100 µM throughout.
In the case of `COc1cc(/C=N\NC(=O)CN2CCN(c3cc4c(cc3F)c(=O)c(C(=O)N/N=C/c3cc(OC)c(OC)c(OC)c3)cn4C3CC3)CC2)cc(OC)c1OC`, the GI50 in experiment [1] is more than 24.6 µM; in [2], 0.244 µM; in experiment [3], 0.577 µM; in [4], 0.718 µM; in experiment [5], 0.235 µM; in experiment [6] it was more than 100 µM. In addition, the GI50 in [7] was 0.198 µM; in [8], more than 50.5 µM; in experiment [9] it was 0.299 µM; in experiment [10], 18.7 µM. The TGI in experiment [1] was more than 100 µM; in [2], 0.656 µM; in experiment [3], more than 88.5 µM; in experiment [4], more than 53.1 µM; in [5] it was 0.712 µM; in experiment [6], more than 100 µM. Besides, the TGI in experiment [7] is 0.674 µM; in experiment [8], more than 100 µM; in experiment [9], 23.7 µM; in experiment [10], more than 100 µM.
With `C=CC(=O)Nc1cc(Nc2ncc(C(=O)OC(C)C)c(-c3cn(C)c4ccccc34)n2)c(OC)cc1N(C)CCN(C)C`, the GI50 is 2.89 µM in [1]; 3.19 µM in experiment [2]; 4.85 µM in [3]; less than 0.01 µM in experiment [4]; 1.69 µM in [5]; less than 0.01 µM in [6]. For the same compound, the GI50 is 2.02 µM in experiment [7], 1.32 µM in experiment [8], 0.483 µM in [9] and 3.15 µM in [10]. In addition, the TGI in [1] was 21.5 µM; in experiment [2], 9.54 µM; in experiment [3] it was 25 µM; in experiment [4] it was 16.7 µM; in [5], 3.24 µM; in experiment [6], 5.19 µM. For the same compound, the TGI in experiment [7] was 10.1 µM; in experiment [8], 9.32 µM; in experiment [9], 7.63 µM; in [10], 12.9 µM.
On to `Cc1nc2sccn2c1-c1csc(Nc2ccccc2Cl)n1`, for which the GI50 is 2.98 µM in [1]; 4.09 µM in experiment [2]; 6.05 µM in experiment [3]; 8.4 µM in experiment [4]; 3.55 µM in experiment [5]; 4.44 µM in [6]. Also, the GI50 is 0.798 µM in experiment [7], 3.06 µM in [8], 1.24 µM in [9] and 3.47 µM in experiment [10]. Moreover, the TGI stood at 44.4 µM in experiment [1]; 37.5 µM in experiment [2]; 45.2 µM in [3]; 75.2 µM in experiment [4]; 22.1 µM in experiment [5]; 48.8 µM in experiment [6]. In addition, the TGI in experiment [7] stood at 7.08 µM; in experiment [8] it was 40.7 µM; in [9], 12.7 µM; in experiment [10], 15.7 µM.
With `CN(C)c1ccc(/C=C\C2=[N+](C)c3ccccc3C2(C)C)cc1`, the GI50 in [1] is 1.06 µM; in [2], 0.195 µM; in experiment [3], 0.614 µM; in experiment [4], 0.696 µM; in [5], 0.456 µM; in experiment [6], 1.25 µM. For the same compound, the GI50 was 0.89 µM in [7], 1.82 µM in experiment [8], 4.38 µM in experiment [9] and 2.48 µM in experiment [10]. For the same compound, the TGI is more than 62 µM in experiment [1]; more than 41.1 µM in experiment [3]; more than 24.4 µM in [4]; 16.5 µM in [5]; more than 52.4 µM in experiment [6]; more than 22.8 µM in experiment [7]. In addition, the values for the TGI in experiment [8], in experiment [9] and in [10] were 20.6 µM, 28.2 µM and more than 41.2 µM, respectively.

Source of the values: PubChem BioAssay (NCI).
